Data set [1] is described as follows: Plasma protein binding (equilibrium dialysis), rat. The settings on record: 10 μM, 4 hrs at 37° C. Format: in vitro ADME. As to the method: A 10 mM stock solution of the compound in DMSO was diluted with a factor 5 in DMSO. This solution was further diluted in freshly thawed human, rat, mouse or dog plasma (BioReclamation INC) with a final concentration of 10 μM and final DMSO concentration of 0.5% (5.5 μL in 1094.5 μL plasma in a PP-Masterblock 96 well (Greiner, Cat no. 780285))
A Pierce Red Device plate with inserts (ThermoScientific, Cat no. 89809) was prepared and filled with 750 μL PBS in the buffer chamber and 500 μL of the spiked plasma in the plasma chamber. The plate was incubated for 4 hrs at 37° C. while shaking at 230 rpm. After incubation, 120 μL of both chambers was transferred to 360 μL acetonitrile in a 96-well round bottom, PP deep-well plates (Nunc, Cat no. 278743) and sealed with an aluminum foil lid. The samples were mixed and placed on ice for 30 min. This plate was then centrifuged 30 min at 1200 rcf at 4° C. and the supernatant was transferred to a 96 v-bottom PP plate (Greiner, 651201) for analysis on LCMS.
The plate is sealed with sealing mats (MA96RD-04S) of www.kinesis.co.uk and samples are measured at room temperature on LCMS (ZQ 1525 from Waters) under optimized conditions using Quanoptimize to determine the appropriate mass of the molecule.
The samples were analyzed on LCMS with a flow rate of […]. Solvent A was 15 mM ammonia and solvent B was acetonitrile. The sample was run under positive ion spray on an XBridge C18 3.5 μM (2.1×30 mm) column, from Waters. The solvent gradient has a total run time of 2 minutes and ranges from 5% B to 95% B.
Peak area from the compound in the buffer chamber and the plasma chamber are considered to be 100% compound.
Background: In equilibrium dialysis free small molecules cross a membrane that holds back macromolecules.

Data set [2] in a line: Microsomal stability, human. The conditions noted are these: human liver microsomes, 3 μM compound. In kind it is in vitro ADME. As to the method: (§1) A 10 mM stock solution of compound in DMSO was diluted 1000 fold in a 182 mM phosphate buffer pH7.4 in a 96 deep well plate (Greiner, Cat no. 780285) and pre-incubated at 37° C. 40 μL of deionised water was added to a well of a polypropylene Matrix 2D barcode labelled storage tube (Thermo Scientific) and pre-incubated at 37° C.
(§2) A Glucose-6-phophate-dehydrogenase (G6PDH) working stock solution was prepared in 182 mM phosphate buffer pH7.4 and placed on ice before use. A co-factor containing MgCl2, glucose-6-phosphate and NADP+ was prepared in deionised water and placed on ice before use.
(§3) A final working solution containing liver microsomes (Xenotech) of a species of interest (human, mouse, rat, dog), previously described G6PDH and co-factors was prepared and this mix was incubated for no longer than 20 minutes at room temperature.
(§4) 30 μL of the pre-heated compound dilution was added to 40 μL of pre-heated water in the Matrix tubes and 30 μL, of the microsomal mix was added. Final reaction concentrations were 3 μM compound, 1 mg microsomes, 0.4 U/mL GDPDH, 3.3 mM MgCl2, 3.3 mM glucose-6-phosphate and 1.3 mM NADP+.
(§5) To measure percentage remaining of compound at time zero MeOH or ACN was added (1:1) to the well before adding the microsomal mix. The plates were sealed with Matrix Sepra Seals™ (Matrix, Cat. No. 4464) and shaken for a few seconds ensure complete mixing of all components.
(§6) The samples which were not stopped are incubated at 37° C., 300 rpm and after 1 hr of incubation the reaction was stopped with MeOH or ACN (1:1).
(§7) After stopping the reaction the samples were mixed and placed on ice for 30 min to precipitate the proteins. The plates were then centrifuged 30 min at 1200 rcf at 4° C. and the supernatant was transferred to a 96 v-bottom PP plate (Greiner, 651201) for analysis on LCMS.
(§8) These plates were sealed with sealing mats (MA96RD-04S) of www.kinesis.co.uk and samples were measured at room temperature on LCMS (ZQ 1525 from Waters) under optimized conditions using Quanoptimize to determine the appropriate mass of the parent molecule.
(§9) The samples were analyzed on LCMS with a flow rate of 1 mL/min. Solvent A was 15 mM ammonia and solvent B was methanol or acetonitrile, depending on the stop solution used. The samples were run under positive ion spray on an XBridge C18 […] (2.1×30 mm) column, from Waters.
(§10) Peak area from the parent compound at time 0 was considered to be 100% remaining. The percentage remaining after 1 hr incubation was calculated from time 0 and was calculated as the percentage remaining. The solubility of the compound in the final test concentration in buffer is inspected by microscope and results are reported.
(§11) The data on microsomal stability are expressed as a percentage of the total amount of compound remaining after 60 min.
Background: Liver microsomes are a subcellular fraction often used to study metabolism.

Data set [3] is described as follows: Microsomal stability, rat. In kind it is in vitro ADME. The settings on record: rat liver microsomes, 3 μM compound. As to the method: as §1, §2, §3, §4, §5, §6, §7, §8, §9, §10, §11
The nature of data set [4]: Pharmacokinetic study in rodents. In kind it is in vivo, rat. The conditions noted are these: for Cmax: read-out: C0 or Cmax; for AUC: read-out: AUC (0-z); for F: PO 5 mg/kg vs IV 1 mg/kg; for AUC(0-t): read-out: AUC (0-24 h); for Vd: read-out: Vss. As to the method: Sprague-Dawley rats (male, 5-6 weeks old) were obtained from Janvier (France). Rats were acclimatized for at least 7 days before treatment and were kept on a 12 hr light/dark cycle (0700-1900). Temperature was maintained at approximately 22° C., and food and water were provided ad libitum. […] After the surgery, rats were housed individually. Rats were deprived of food for at least 16 hours before oral dosing and 6 hours after. Water was provided ad libitum.
Test compounds were orally dosed as a single esophageal gavage at 5 mg/kg under a dosing volume of 5 ml/kg and intravenously dosed as a bolus via the caudal vein at 1 mg/kg under a dosing volume of 5 mL/kg. Each group consisted of 3 rats. […] For compound 11, blood samples were collected at the retro-orbital sinus with lithium heparin as anti-coagulant at the following time points 0.25, 1, 3 and 6 hrs (oral route). Whole blood samples were centrifuged at 5000 rpm for 10 min and the resulting plasma samples were stored at −20° C. pending analysis.
Plasma concentrations of each test compound were determined by an LC-MS/MS method in which the mass spectrometer was operated in positive electrospray mode.
Pharmacokinetic parameters were calculated using Winnonlin® (Pharsight®, United States).

The test system of a further data set is TNF release in vivo. As to the kind of experiment: Septic shock model (LPS-induced TNF release). The conditions noted are these: BALB/cJ mice, 30 mg/kg, po, LPS 15 μg/kg ip. Also on record: species or system mouse. As to the method:
Injection of lipopolysaccharide (LPS) induces a rapid release of soluble tumour necrosis factor (TNF-alpha) into the periphery. This model was used to analyse prospective blockers of TNF release in vivo. Six BALB/cJ female mice (20 g) per group were treated at the intended dosing once, po. Thirty minutes later, LPS (15 μg/kg; E. Coli serotype 0111:B4) was injected ip. Ninety minutes later, mice were euthanized and blood was collected. Circulating TNF alpha levels were determined using commercially available ELISA kits. Dexamethasone ([…]) was used as a reference anti-inflammatory compound. Selected compounds were tested at one or multiple doses, e.g. 3 and/or 10 and/or 30 mg/kg, po.

[5] abbreviates: male, Sprague-Dawley, rat, plasma, po, 5 mg/kg.
Where [6] appears, read: male, plasma, Sprague-Dawley rat, PO 5 mg/kg.
The mark [7] stands for this setting: male, plasma, Sprague-Dawley rat, IV 1 mg/kg (C0).
Where [8] appears, read: male, plasma, Sprague-Dawley rat, IV 1 mg/kg.

SMILES strings stand for the structures. Like-named read-outs stand apart in the source and are kept apart here.

One may read the Cmax as the highest concentration seen after dosing. As usually defined, the Tmax is the time from dosing to the highest level. Broadly, the AUC is the area under the concentration-time curve, a measure of exposure. Usually clearance stands for the rate of elimination divided by the concentration. Read a high clearance as a high capacity for elimination.

Regarding `O=C(Nc1nc2cccc(-c3ccc(CN4CCC(F)(F)CC4)cc3)n2n1)C1CC1` [Compound 11, Cyclopropanecarboxylic acid {5-[4-(4,4-difluoro-piperidin-1-ylmethyl)-phenyl]-[1,2,4]triazolo [1,5-a]pyridin-2-yl}-amide], in data set [1], the “percentage bound to plasma, Rat” value was 76.5%. Further, the “percentage of compound remaining after 60 min, Human” value in data set [2] was 51%. Also, the “percentage of compound remaining after 60 min, Rat” value in data set [3] is reported as 26%. In addition, the Cmax in data set [4] (setting [5]) was determined as 547 ng/mL. Moreover, in data set [4] (setting [6]), the Tmax came out at 15 min and the area under the curve (AUC) was 690 ng·h/mL.

For `O=C(Nc1nc2cccc(-c3ccc(CN4CCOCC4)cc3)n2n1)C1CC1` [Compound 2, N-(5-(4-(morpholinomethyl)phenyl)-[1,2,4]triazolo[1,5-a]pyridin-2-yl)cyclopropanecarboxamide], in the data set with TNF release in vivo, the “activity in septic shock model (circulating TNF alpha)” value (from here on “activity in septic shock model”) is “active”. In addition, the “percentage bound to plasma, Rat” value in data set [1] worked out at 64.5%. Further, the “percentage of compound remaining after 60 min, Human” value in data set [2] came out at 73%. Besides, in data set [3], the “percentage of compound remaining after 60 min, Rat” value amounted to 38%. In data set [4] (Sprague-Dawley rat, IV 1 mg/kg), this compound showed a Cl of 2.12. In data set [4] (Sprague-Dawley rat), this compound registered an F of 62%. Further, in data set [4] (setting [5]), the maximum concentration (Cmax) was 1320 ng/mL. Also, in data set [4] (setting [7]), the maximum concentration (Cmax) is 863 ng/mL. In data set [4] (setting [8]), the AUC(0-t) was 474 ng·h/mL, the area under the curve (AUC) is 470 ng·h/mL and the Vd is 1.46 L/kg. Besides, in data set [4] (setting [6]), the time to peak (Tmax) is 19.8 min, the AUC(0-t) is 1460 ng·h/mL and the exposure (AUC) is 1440 ng·h/mL.

In the case of `O=C(Nc1nc2cccc(-c3ccc(C(=O)N4CCS(=O)(=O)CC4)cc3)n2n1)C1CC1` [Compound 10, Cyclopropanecarboxylic acid {5-[4-(1,1-dioxo-1-thiomorpholine-4-carbonyl)-phenyl]-[1,2,4]triazolo [1,5-a]pyridin-2-yl}-amide], the “activity in septic shock model” value in the data set on TNF release in vivo is listed as “active”. Moreover, the “percentage bound to plasma, Rat” value in data set [1] is reported as 51%. Further, in data set [2], the “percentage of compound remaining after 60 min, Human” value is on record as 102%. For the same compound, the “percentage of compound remaining after 60 min, Rat” value in data set [3] was 89%.

For `O=C(Nc1nc2cccc(-c3ccc(CN4CCS(=O)(=O)CC4)cc3)n2n1)C1CC1` [Compound 1, Cyclopropanecarboxylic acid {5-[4-(1,1-dioxo-1-thiomorpholin-4-ylmethyl)-phenyl]-[1,2,4]triazolo [1,5-a]pyridin-2-yl}-amide], the “activity in septic shock model” value in the data set with TNF release in vivo was “active”. Besides, the “percentage bound to plasma, Rat” value in data set [1] came to 65.7%. For the same compound, the “percentage of compound remaining after 60 min, Human” value in data set [2] was 87.2%. For the same compound, the “percentage of compound remaining after 60 min, Rat” value in data set [3] is 65.6%. The F in data set [4] (Sprague-Dawley rat) came out at 45%. Also, in data set [4] (setting [5]), the highest concentration (Cmax) turned out to be 310 ng/mL. In data set [4] (setting [8]), the clearance was 22.5 mL/min/kg, the AUC stood at 722 ng·h/mL and the Vd worked out at 1.76 L/kg. Further, the Cmax in data set [4] (setting [7]) is 1410 ng/mL. In data set [4] (setting [6]), the Tmax worked out at 132 min, the AUC(0-t) was determined as 1680 ng·h/mL and the exposure (AUC) was determined as 1430 ng·h/mL.

The record behind these values is patent US8563545B2, “Compound useful for the treatment of degenerative and inflammatory diseases” (Galapagos NV, priority 2009, dated 2013).
